How the values were obtained:
EGFR mutant L858R = target: T1, EGFR mutant L858R (Homo sapiens, UniProt P00533, L858R); assay: Kinase inhibition assay, EGFR L858R; assay type: biochemical; details: read-out: EGFR mutants L858R;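 also: truncated human EGFR L858R kinase with compound preincubation, ULight-PolyGT peptide phosphorylation read by Europium-antibody Lance detection, IC50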
T1 construct: truncated human JAK3, EGFR mutants such as del E746-A750; purchased Carna Biosciences

EGFR mutant T790M = target: T2, EGFR mutant T790M (Homo sapiens, UniProt P00533, T790M); assay: Kinase inhibition assay, EGFR mutant T790M; details: biochemical potency;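 also: truncated human EGFR mutant enzyme preincubated two hours with compound, then ATP plus ULight-PolyGT peptide for one hour, Europium-labeled antibody LANCE detection, IC50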
T2 construct: truncated human JAK3, EGFR mutants such as del E746-A750; purchased Carna Biosciences
T2 sequence (P00533 669-1210 T790M limits assumed): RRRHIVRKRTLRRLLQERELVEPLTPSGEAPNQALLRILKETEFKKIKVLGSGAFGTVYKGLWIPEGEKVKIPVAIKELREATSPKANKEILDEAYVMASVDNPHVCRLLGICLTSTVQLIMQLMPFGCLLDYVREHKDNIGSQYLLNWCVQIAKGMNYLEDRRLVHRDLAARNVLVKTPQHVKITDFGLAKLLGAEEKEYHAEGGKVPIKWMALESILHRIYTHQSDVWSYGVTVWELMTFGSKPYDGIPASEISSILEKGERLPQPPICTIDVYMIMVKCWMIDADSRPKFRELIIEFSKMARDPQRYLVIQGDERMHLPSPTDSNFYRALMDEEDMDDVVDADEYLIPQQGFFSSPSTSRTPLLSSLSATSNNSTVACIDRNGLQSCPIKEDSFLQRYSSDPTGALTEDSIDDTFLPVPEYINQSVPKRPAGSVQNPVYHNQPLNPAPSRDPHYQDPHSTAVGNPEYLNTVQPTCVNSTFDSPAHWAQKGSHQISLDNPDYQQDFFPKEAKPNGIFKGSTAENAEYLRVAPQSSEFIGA

SYK = target: T3, SYK (Homo sapiens, UniProt P43405); assay: Kinase inhibition assay, SYK; assay type: biochemical; details: biochemical potency;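 also: purified full-length human SYK pre-incubated 30 min with compound, then ULight-TK peptide phosphorylation for 1 h, detected with Europium-labeled antibody in Lance buffer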
T3 construct: Purified human, full-length SYK, KDR; purchased Carna Biosciences

EGFR mutant Del19/T790M = target: T4, EGFR mutant Del19/T790M (Homo sapiens, UniProt P00533, DEL746-750/T790M); assay: Kinase inhibition assay, EGFR del E746-A750/T790M; assay type: biochemical; details: read-out: EGFR mutants Del19/T790M
T4 construct: truncated human JAK3, EGFR mutants such as del E746-A750; purchased Carna Biosciences
T4 sequence (P00533 with tags, fused parts or gaps DEL746-750/T790M limits assumed): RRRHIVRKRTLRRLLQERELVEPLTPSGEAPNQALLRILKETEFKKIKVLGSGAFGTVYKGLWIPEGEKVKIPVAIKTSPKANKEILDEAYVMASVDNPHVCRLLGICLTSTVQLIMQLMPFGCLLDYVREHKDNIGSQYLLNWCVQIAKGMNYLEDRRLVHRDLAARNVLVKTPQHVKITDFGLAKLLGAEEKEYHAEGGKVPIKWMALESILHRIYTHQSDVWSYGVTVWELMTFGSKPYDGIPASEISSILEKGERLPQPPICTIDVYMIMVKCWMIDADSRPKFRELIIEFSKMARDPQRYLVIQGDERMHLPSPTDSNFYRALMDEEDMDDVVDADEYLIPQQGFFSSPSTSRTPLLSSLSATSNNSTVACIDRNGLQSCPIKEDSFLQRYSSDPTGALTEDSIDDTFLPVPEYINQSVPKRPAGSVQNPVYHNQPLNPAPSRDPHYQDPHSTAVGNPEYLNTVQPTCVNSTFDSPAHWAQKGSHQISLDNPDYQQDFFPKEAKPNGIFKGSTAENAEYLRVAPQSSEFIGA

EGFR mutant L858R/T790M = target: T5, EGFR mutant L858R/T790M (Homo sapiens, UniProt P00533, L858R/T790M); assay: Kinase inhibition assay, EGFR L858R/T790M; assay type: biochemical; details: read-out: EGFR mutants L858R/T790M;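 also: truncated human enzyme preincubated two hours with compound, then one hour with one millimolar ATP and ULight-PolyGT peptide, Europium-labeled antibody detection, IC50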
T5 construct: truncated human JAK3, EGFR mutants such as del E746-A750; purchased Carna Biosciences
T5 sequence (P00533 669-1210 T790M/L858R limits assumed): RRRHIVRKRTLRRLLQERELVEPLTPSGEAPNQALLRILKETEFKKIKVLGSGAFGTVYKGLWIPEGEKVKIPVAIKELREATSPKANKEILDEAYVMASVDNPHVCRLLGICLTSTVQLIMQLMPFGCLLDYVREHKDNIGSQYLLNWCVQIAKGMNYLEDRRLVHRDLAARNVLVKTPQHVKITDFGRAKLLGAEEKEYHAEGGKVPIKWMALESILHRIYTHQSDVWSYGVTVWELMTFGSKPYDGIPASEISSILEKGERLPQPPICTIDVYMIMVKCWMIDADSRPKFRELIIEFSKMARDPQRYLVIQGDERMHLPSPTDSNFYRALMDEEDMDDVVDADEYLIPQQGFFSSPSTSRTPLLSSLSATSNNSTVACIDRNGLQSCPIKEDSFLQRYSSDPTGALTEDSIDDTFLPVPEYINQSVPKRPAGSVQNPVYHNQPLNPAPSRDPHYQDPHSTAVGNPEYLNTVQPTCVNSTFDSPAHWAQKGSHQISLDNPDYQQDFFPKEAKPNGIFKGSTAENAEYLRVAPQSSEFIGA

[1] = target: T6, EGFR mutant Del19 (E746-A750) (Homo sapiens, UniProt P00533, DEL746-750); assay: Kinase inhibition assay, EGFR del E746-A750; assay type: biochemical; details: read-out: EGFR mutants Del19 (E746-A750);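 also: truncated human EGFR mutant kinase, two-hour preincubation with compound, then one-hour reaction with ATP and ULight-PolyGT peptide, LANCE Europium-antibody phosphorylation readout, IC50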
T6 construct: truncated human JAK3, EGFR mutants such as del E746-A750; purchased Carna Biosciences
T6 sequence (P00533 with tags, fused parts or gaps DEL746-750 limits assumed): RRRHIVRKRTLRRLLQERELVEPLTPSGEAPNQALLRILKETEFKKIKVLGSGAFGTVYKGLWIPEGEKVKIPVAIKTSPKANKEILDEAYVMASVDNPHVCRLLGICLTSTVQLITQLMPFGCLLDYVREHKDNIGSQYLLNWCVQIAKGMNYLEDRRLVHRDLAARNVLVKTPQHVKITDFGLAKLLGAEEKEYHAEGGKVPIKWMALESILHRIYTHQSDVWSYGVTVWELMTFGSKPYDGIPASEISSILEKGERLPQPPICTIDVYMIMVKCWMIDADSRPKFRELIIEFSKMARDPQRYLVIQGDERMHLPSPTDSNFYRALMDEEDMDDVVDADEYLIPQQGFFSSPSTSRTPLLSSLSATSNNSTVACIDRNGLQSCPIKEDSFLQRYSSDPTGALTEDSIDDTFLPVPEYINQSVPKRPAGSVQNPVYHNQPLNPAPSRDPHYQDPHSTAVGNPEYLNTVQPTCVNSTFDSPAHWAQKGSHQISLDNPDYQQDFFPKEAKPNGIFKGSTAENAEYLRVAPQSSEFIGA

T1 sequence (P00533 669-1210 L858R limits assumed): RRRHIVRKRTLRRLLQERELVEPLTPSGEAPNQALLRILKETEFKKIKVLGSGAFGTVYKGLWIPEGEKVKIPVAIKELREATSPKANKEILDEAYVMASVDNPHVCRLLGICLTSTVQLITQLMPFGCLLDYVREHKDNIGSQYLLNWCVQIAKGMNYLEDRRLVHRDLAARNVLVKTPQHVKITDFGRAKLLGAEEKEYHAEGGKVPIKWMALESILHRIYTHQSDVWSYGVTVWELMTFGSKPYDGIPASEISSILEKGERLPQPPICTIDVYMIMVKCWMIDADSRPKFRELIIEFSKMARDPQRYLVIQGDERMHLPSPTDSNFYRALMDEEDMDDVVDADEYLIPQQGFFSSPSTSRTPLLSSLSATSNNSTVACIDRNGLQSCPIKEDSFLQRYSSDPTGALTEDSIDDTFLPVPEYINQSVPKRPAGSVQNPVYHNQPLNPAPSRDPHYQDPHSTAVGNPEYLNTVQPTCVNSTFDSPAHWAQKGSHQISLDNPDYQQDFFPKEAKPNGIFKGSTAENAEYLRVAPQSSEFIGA

Row | SMILES | IC50 (EGFR mutant L858R) [µM] | IC50 (EGFR mutant T790M) [µM] | IC50 (SYK) [µM] | IC50 (EGFR mutant Del19/T790M) [µM] | IC50 (EGFR mutant L858R/T790M) [µM] | IC50 [1] [µM]
1 | C=CC(=O)Nc1cc(Nc2nccc(-n3cc(CN(C)C)c(-c4ccc(F)cc4)n3)n2)c(OC)cc1N1CCOCC1 [Compound 6, N-(5-(4-(4-((dimethylamino)methyl)-3-(4-fluorophenyl)-1H-pyrazol-1-yl)pyrimidin-2-ylamino)-4-methoxy-2-morpholinophenyl)acrylamide] | 0.02 to 0.2 | 0.02 to 0.2 | > 1 | < 0.02 | < 0.02 | 0.02 to 0.2
2 | C=CC(=O)Nc1cc(Nc2ncc(C)c(-n3cc(CN4C[C@H](O)[C@H](OC)C4)cn3)n2)c(OC)cc1N1CCOCC1 [Compound 21, N-(5-(4-(4-(((3S,4R)-3-hydroxy-4-methoxypyrrolidin-1-yl)methyl)-1H-pyrazol-1-yl)-5-methylpyrimidin-2-ylamino)-4-methoxy-2-morpholinophenyl)acrylamide] | 0.02 to 0.2 | < 0.02 | 0.201 to 1 | < 0.02 | < 0.02 | < 0.02
3 | C=CC(=O)Nc1cc(Nc2ncc(C)c(-n3cc(CN(C)C)cn3)n2)c(OC)cc1N1CCOCC1 [Compound 22, N-(5-(4-(4-((dimethylamino)methyl)-1H-pyrazol-1-yl)-5-methylpyrimidin-2-ylamino)-4-methoxy-2-morpholinophenyl)acrylamide] | 0.02 to 0.2 | < 0.02 | 0.02 to 0.2 | < 0.02 | < 0.02 | < 0.02
4 | C=CC(=O)Nc1cc(Nc2ncc(C)c(-n3cc(CN4CCOCC4)cn3)n2)c(OC)cc1N1CCN(C)CC1 [Compound 33, N-(4-methoxy-5-(5-methyl-4-(4-(morpholinomethyl)-1H-pyrazol-1-yl)pyrimidin-2-ylamino)-2-(4-methylpiperazin-1-yl)phenyl)acrylamide] | 0.02 to 0.2 | < 0.02 | > 1 | < 0.02 | 0.02 to 0.2 | 0.02 to 0.2
5 | C=CC(=O)Nc1cc(Nc2nccc(-n3cc(CN4CC[C@H](N(C)C)C4)cn3)n2)c(OC)cc1N1CCOCC1 [Compound 35, (S)—N-(5-(4-(4-((3-(dimethylamino)pyrrolidin-1-yl)methyl)-1H-pyrazol-1-yl)pyrimidin-2-ylamino)-4-methoxy-2-morpholinophenyl)acrylamide] | 0.201 to 1 | – | > 1 | 0.02 to 0.2 | 0.201 to 1 | 0.201 to 1
6 | C=CC(=O)Nc1cc(Nc2nccc(-n3cc(CN4CC[C@@H](N(C)C)C4)cn3)n2)c(OC)cc1N1CCOCC1 [Compound 39, (R)—N-(5-(4-(4-((3-(dimethylamino)pyrrolidin-1-yl)methyl)-1H-pyrazol-1-yl)pyrimidin-2-ylamino)-4-methoxy-2-morpholinophenyl)acrylamide] | 0.201 to 1 | – | > 1 | 0.02 to 0.2 | 0.201 to 1 | 0.201 to 1
7 | C=CC(=O)Nc1cc(Nc2ncc(C)c(-n3cc(CN4CCC4)cn3)n2)c(OC)cc1N1CCCN(C)CC1 [Compound 41, N-(5-(4-(4-(azetidin-1-ylmethyl)-1H-pyrazol-1-yl)-5-methylpyrimidin-2-ylamino)-4-methoxy-2-(4-methyl-1,4-diazepan-1-yl)phenyl)acrylamide] | < 0.02 | < 0.02 | 0.201 to 1 | < 0.02 | < 0.02 | < 0.02
8 | C=CC(=O)Nc1cc(Nc2ncc(C)c(-n3cc(CN4C[C@H](O)[C@H](OC)C4)cn3)n2)c(OC)cc1N(C)CCN(C)C [Compound 43, N-(2-((2-(dimethylamino)ethyl)(methyl)amino)-5-(4-(4-(((3S,4R)-3-hydroxy-4-methoxypyrrolidin-1-yl)methyl)-1H-pyrazol-1-yl)-5-methylpyrimidin-2-ylamino)-4-methoxyphenyl)acrylamide] | < 0.02 | < 0.02 | > 1 | < 0.02 | < 0.02 | < 0.02
9 | C=CC(=O)Nc1cc(Nc2nccc(-n3cc(CN4CC(OC)C4)c(C)n3)n2)c(OC)cc1N1CCOCC1 [Compound 44, N-(4-methoxy-5-(4-(4-((3-methoxyazetidin-1-yl)methyl)-3-methyl-1H-pyrazol-1-yl)pyrimidin-2-ylamino)-2-morpholinophenyl)acrylamide] | 0.02 to 0.2 | 0.201 to 1 | > 1 | 0.02 to 0.2 | 0.02 to 0.2 | 0.02 to 0.2
10 | C=CC(=O)Nc1cc(Nc2nccc(-n3cc(CN4CCC4)c(C)n3)n2)c(OC)cc1-c1ccccc1OC [Compound 68, N-(4-(4-(4-(azetidin-1-ylmethyl)-3-methyl-1H-pyrazol-1-yl)pyrimidin-2-ylamino)-2′,5-dimethoxybiphenyl-2-yl)acrylamide] | 0.201 to 1 | – | > 1 | 0.02 to 0.2 | 0.02 to 0.2 | 0.02 to 0.2
11 | C=CC(=O)Nc1cc(Nc2nccc(-n3cc(CN4CCC4)c(C)n3)n2)c(OC)cc1N1CCC(F)(F)CC1 [Compound 69, N-(5-(4-(4-(azetidin-1-ylmethyl)-3-methyl-1H-pyrazol-1-yl)pyrimidin-2-ylamino)-2-(4,4-difluoropiperidin-1-yl)-4-methoxyphenyl)acrylamide] | 0.02 to 0.2 | – | > 1 | < 0.02 | 0.02 to 0.2 | < 0.02
12 | C=CC(=O)Nc1cc(Nc2nccc(-n3cc(CN4CCCC4)c(-c4ccccc4)n3)n2)c(OC)cc1N1CCOCC1 [Compound 90, N-(4-methoxy-2-morpholino-5-(4-(3-phenyl-4-(pyrrolidin-1-ylmethyl)-1H-pyrazol-1-yl)pyrimidin-2-ylamino)phenyl)acrylamide] | 0.02 to 0.2 | – | > 1 | < 0.02 | < 0.02 | < 0.02
13 | C=CC(=O)Nc1cc(Nc2ncc(F)c(-n3cc(C)c(CN4CCC4)c3)n2)c(OC)cc1N(C)C [Compound 142, N-(5-(4-(3-(azetidin-1-ylmethyl)-4-methyl-1H-pyrrol-1-yl)-5-fluoropyrimidin-2-ylamino)-2-(dimethylamino)-4-methoxyphenyl)acrylamide] | < 0.02 | – | 0.201 to 1 | < 0.02 | < 0.02 | < 0.02

Continued, values first:

Row | IC50 (EGFR mutant L858R) [µM] | IC50 (EGFR mutant T790M) [µM] | IC50 (SYK) [µM] | IC50 (EGFR mutant Del19/T790M) [µM] | IC50 (EGFR mutant L858R/T790M) [µM] | IC50 [1] [µM] | SMILES
14 | < 0.02 | < 0.02 | > 1 | < 0.02 | < 0.02 | < 0.02 | C=CC(=O)Nc1cc(Nc2ncc(C)c(-n3cc(CN(C)C)c(C(C)(C)C)n3)n2)c(OC)cc1N1CCOCC1 [Compound 7, N-(5-(4-(3-tert-butyl-4-((dimethylamino)methyl)-1H-pyrazol-1-yl)-5-methylpyrimidin-2-ylamino)-4-methoxy-2-morpholinophenyl)acrylamide]
15 | < 0.02 | < 0.02 | 0.201 to 1 | < 0.02 | < 0.02 | < 0.02 | C=CC(=O)Nc1cc(Nc2nccc(-n3cc(CN4CC(O)C4)c(C)n3)n2)c(OC)cc1N1CCOCC1 [Compound 15, N-(5-(4-(4-((3-hydroxyazetidin-1-yl)methyl)-3-methyl-1H-pyrazol-1-yl)pyrimidin-2-ylamino)-4-methoxy-2-morpholinophenyl)acrylamide]
16 | < 0.02 | < 0.02 | 0.201 to 1 | < 0.02 | < 0.02 | < 0.02 | C=CC(=O)Nc1cc(Nc2ncc(C)c(-n3cc(CN4CC[C@H](O)C4)c(C)n3)n2)c(OC)cc1N1CCOCC1 [Compound 28, (S)—N-(5-(4-(4-((3-hydroxypyrrolidin-1-yl)methyl)-3-methyl-1H-pyrazol-1-yl)-5-methylpyrimidin-2-ylamino)-4-methoxy-2-morpholinophenyl)acrylamide]
17 | < 0.02 | < 0.02 | 0.02 to 0.2 | < 0.02 | < 0.02 | < 0.02 | C=CC(=O)Nc1cc(Nc2ncc(C)c(-n3cc(CN4CC(O)C4)c(C)n3)n2)c(OC)cc1N1CCCCC1 [Compound 30, N-(5-(4-(4-((3-hydroxyazetidin-1-yl)methyl)-3-methyl-1H-pyrazol-1-yl)-5-methylpyrimidin-2-ylamino)-4-methoxy-2-(piperidin-1-yl)phenyl)acrylamide]
18 | < 0.02 | < 0.02 | 0.02 to 0.2 | < 0.02 | < 0.02 | < 0.02 | C=CC(=O)Nc1cc(Nc2ncc(C)c(-n3cc(CN4CC(O)C4)c(C)n3)n2)c(OC)cc1N(C)CCN(C)C [Compound 31, N-(2-((2-(dimethylamino)ethyl)(methyl)amino)-5-(4-(4-((3-hydroxyazetidin-1-yl)methyl)-3-methyl-1H-pyrazol-1-yl)-5-methylpyrimidin-2-ylamino)-4-methoxyphenyl)acrylamide]
19 | < 0.02 | < 0.02 | 0.201 to 1 | < 0.02 | < 0.02 | < 0.02 | C=CC(=O)Nc1cc(Nc2ncc(C)c(-n3cc(CN4CCC4)cn3)n2)c(OC)cc1N1CCN(C(C)=O)CC1 [Compound 37, N-(2-(4-acetylpiperazin-1-yl)-5-(4-(4-(azetidin-1-ylmethyl)-1H-pyrazol-1-yl)-5-methylpyrimidin-2-ylamino)-4-methoxyphenyl)acrylamide]
20 | < 0.02 | < 0.02 | > 1 | 0.02 to 0.2 | < 0.02 | < 0.02 | C=CC(=O)Nc1cc(Nc2nccc(-n3cc(CN4CCC4)cn3)n2)c(OC)cc1N(C)C [Compound 38, N-(5-(4-(4-(azetidin-1-ylmethyl)-1H-pyrazol-1-yl)pyrimidin-2-ylamino)-2-(dimethylamino)-4-methoxyphenyl)acrylamide]

Reference: patent USRE50528E1, “Compounds and compositions for modulating EGFR mutant kinase activities” (Yuhan Corporation, priority 2014, dated 2025)
